In patent publication US12522593B2, “Azacycloalkyl carbonyl cyclic amine compound” (Alivexis, Inc., priority 2022, dated 2026):

How the values were obtained:
human recombinant CTSC = human recombinant CTSC (Homo sapiens (Human), UniProt P53634); experiment: CTSC inhibition assay (in vitro), fluorescent substrate GF-AFC; format: biochemical; details: 30 μmol/L GF-AFC, pH 5.0, 25° C.
Outline: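 Recombinant human CTSC pre-activated with cathepsin L (18° C, 30 min), then preincubated with compound 30 min at 25° C in pH 5.0 MES buffer with 5 mmol/L DTT (0.66 ng/mL CTSC, 0.15% DMSO). Cleavage of 30 μmol/L GF-AFC read after 1 h at 25° C (ex 390/em 505 nm); IC50 by 4-parameter fit.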

CTSC in U937 cells = CTSC in U937 cells (Homo sapiens (Human), UniProt P53634); experiment: Intracellular CTSC inhibition assay (in vitro), LLOMe-induced cell death in U937 cells; format: cell-based; details: 3 hours culture, CellTiter-Glo
Outline: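 U937 cells in RPMI-1640 with 10% FBS were preincubated 30 min with compound ([…], 3-fold dilutions). A 300 μmol/L LLOMe solution was then added, which drives CTSC-dependent cell death, and cells were cultured 3 h. Viability read by CellTiter-Glo luminescence; IC50 from 4-parameter fit.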

Sequence of CTSC in U937 cells (P53634 25-463): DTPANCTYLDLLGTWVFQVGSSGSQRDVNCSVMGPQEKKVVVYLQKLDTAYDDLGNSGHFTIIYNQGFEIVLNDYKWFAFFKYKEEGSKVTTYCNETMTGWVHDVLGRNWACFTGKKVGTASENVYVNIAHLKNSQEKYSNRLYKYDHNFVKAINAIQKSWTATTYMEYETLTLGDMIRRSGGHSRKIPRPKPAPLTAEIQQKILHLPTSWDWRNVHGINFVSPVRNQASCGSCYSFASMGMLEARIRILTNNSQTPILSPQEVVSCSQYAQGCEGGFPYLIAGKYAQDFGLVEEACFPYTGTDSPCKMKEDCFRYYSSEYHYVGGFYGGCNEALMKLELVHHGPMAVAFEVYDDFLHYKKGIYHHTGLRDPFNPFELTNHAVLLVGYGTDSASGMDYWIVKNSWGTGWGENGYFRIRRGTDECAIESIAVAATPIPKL
Sequence of human recombinant CTSC (P53634 25-134): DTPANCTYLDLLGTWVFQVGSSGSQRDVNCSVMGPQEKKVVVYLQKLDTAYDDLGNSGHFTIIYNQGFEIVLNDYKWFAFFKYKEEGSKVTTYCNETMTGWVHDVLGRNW
Sequence of human recombinant CTSC (P53634 231-394): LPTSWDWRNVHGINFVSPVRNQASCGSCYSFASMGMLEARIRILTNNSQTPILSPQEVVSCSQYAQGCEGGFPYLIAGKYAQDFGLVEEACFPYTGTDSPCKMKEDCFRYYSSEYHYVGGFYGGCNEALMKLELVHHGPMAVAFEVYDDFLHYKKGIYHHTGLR
Sequence of human recombinant CTSC (P53634 395-463): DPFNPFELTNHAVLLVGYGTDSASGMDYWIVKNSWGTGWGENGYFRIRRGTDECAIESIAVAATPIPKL

O=C([C@@H]1C[C@@H](O)C2(CCC2)CN1)N1CCC(c2nc(C3CC(F)(F)C3)no2)(C(F)(F)F)CC1 [Example 2, (4-(3-(3,3-Difluorocyclobutyl)-1,2,4-oxadiazol-5-yl)-4-(trifluoromethyl)piperidin-1-yl)((7S,9R)-9-hydroxy-6-azaspiro[3.5]nonan-7-yl)methanone] gave an IC50 (human recombinant CTSC) of 2.36 nM and an IC50 (CTSC in U937 cells) of 0.89 nM.

With CC(C)C1(c2nc(C3CC(F)(F)C3)no2)CCN(C(=O)[C@@H]2C[C@@H](O)C(C)(C)CN2)CC1 [Example 54] the IC50 (human recombinant CTSC) was 3.88 nM and the IC50 (CTSC in U937 cells) was 1.46 nM.

Compound O=C([C@@H]1CC[C@@]2(CCO2)CN1)N1CCC(c2noc(C3CC(F)(F)C3)n2)(C(F)(F)F)CC1 [Example 40] has an IC50 (human recombinant CTSC) of 19.6 nM and an IC50 (CTSC in U937 cells) of 37.9 nM.

With O=C([C@@H]1C[C@@H](O)C2(CCC2)CN1)N1CCC(c2noc(C3CCC(F)(F)CC3)n2)(C2CC2)CC1 [Example 74] the IC50 (human recombinant CTSC) was 0.87 nM and the IC50 (CTSC in U937 cells) was 0.38 nM.

O=C([C@@H]1C[C@@H](O)C2(CCC2)CN1)N1CCC(C(=O)N2CC[C@@H](C(F)(F)F)C2)(C(F)(F)F)CC1 [Example 52] showed an IC50 (human recombinant CTSC) of 8.16 nM and an IC50 (CTSC in U937 cells) of 10.2 nM.

CC(C)C1(c2noc(C3CCC(F)(F)CC3)n2)CCN(C(=O)[C@@H]2C[C@H](O)CN2)CC1 [Example 25] showed an IC50 (human recombinant CTSC) greater than 200 nM and an IC50 (CTSC in U937 cells) greater than 200 nM.

Compound O=C([C@@H]1C[C@@H](O)C2(CCC2)CN1)N1CCC(c2noc(C3CC(F)(F)C3)n2)(C(F)(F)F)CC1 [Example 3, (4-(5-(3,3-Difluorocyclobutyl)-1,2,4-oxadiazol-3-yl)-4-(trifluoromethyl)piperidin-1-yl)((7S,9R)-9-hydroxy-6-azaspiro[3.5]nonan-7-yl)methanone] has an IC50 (human recombinant CTSC) of 1.52 nM and an IC50 (CTSC in U937 cells) of 0.49 nM.

With O=C([C@@H]1CC[C@@]2(CCO2)CN1)N1CCC(c2nc(C3CC(F)(F)C3)no2)(C(F)(F)F)CC1 [Example 10] the IC50 (human recombinant CTSC) was 39.3 nM and the IC50 (CTSC in U937 cells) was 162 nM.
